Measurements reported in patent US12421254B2, “KRAS modulators and uses thereof” (Quanta Therapeutics, Inc., priority 2023, dated 2025).
Where two headings read alike, the source gives them in different places.

Tests used:
[1] = system: phospho-ERK in GP2D (KRAS-G12D) cells; assay: pERK In Cell Western (ICW) assay (Method B), GP2D; type: cell-based; conditions: GP2d, 3 h, Table 4
Procedure, shortened: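 3 h cpd, 37 °C, ½-log 9-pt dilution; AGS 5,000 cells/well, GP2D/SW620 10,000 cells/well, plated overnight. PFA fix, Triton perm, anti-pERK o/n 4 °C, IRDye 800 secondary + DRAQ5. pERK/DRAQ5 as % blank; IC50 4-PL.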

[2] = molecular target: GST-tagged KRAS-G12D (2-169) (Homo sapiens, UniProt P01116, G12D); assay: Nucleotide exchange assay (NEA), SOS-mediated, HTRF, KRAS G12D; type: biochemical; conditions: IC50 extracted at 30 min, 20 nM SOScat
Sequence of GST-tagged KRAS-G12D (2-169) (P01116 2-169 isoform P01116-2 G12D): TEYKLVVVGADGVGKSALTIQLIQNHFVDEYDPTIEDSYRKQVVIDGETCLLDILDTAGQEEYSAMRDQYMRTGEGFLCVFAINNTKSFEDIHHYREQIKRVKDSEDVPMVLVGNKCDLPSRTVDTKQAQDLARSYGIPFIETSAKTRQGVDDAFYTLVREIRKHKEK
Procedure, shortened: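 Compound preincubated 1 h at RT with 0.25 nM GST-KRAS-G12D (2-169) and anti-GST Tb donor, then 20 nM SOS1cat (564-1049) and 150 nM GTP-DY-647P1 added; pH 7.3 HEPES buffer with MgCl2 and DTT. HTRF monitored at RT; % inhibition versus DMSO and no-SOS blank, 4-parameter IC50 taken at 30 min.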

[3] = Table 2, read-out: NEA-G12D (uM) IC50
[4] = Table 4, read-out: NEA G12D IC50

| Compound | IC50 [1] [nM] | IC50 [2, 3] [µM] | IC50 [2, 4] [µM] |
| --- | --- | --- | --- |
| N#Cc1c(N)sc2c1C1(CC2)CN(c2nc(OCC3(CN4CCOCC4)CC3)nc(N3CCCC4(C3)NC(=O)NC4=O)n2)C1 (stereo not drawn) [Compound 7, 2-amino-1′-[4-(2,4-dioxo-1,3,9-triazaspiro[4.5]decan-9-yl)-6-[[1-(morpholinomethyl)cyclopropyl]methoxy]-1,3,5-triazin-2-yl]spiro[5,6-dihydrocyclopenta[b]thiophene-4,3′-azetidine]-3-carbonitrile] | 1000 to 20000 | < 0.01 | < 0.01 |
| N#Cc1c(N)sc2c1C1(CCC2)CN(c2nc(OCC3(CN4CCOCC4)CC3)nc(N3C[C@H]4CC[C@@H](C3)N4)n2)C1 [Compound 3, 2-amino-1′-[4-[(1R,5S)-3,8-diazabicyclo[3.2.1]octan-3-yl]-6-[[1-(morpholinomethyl)cyclopropyl]methoxy]-1,3,5-triazin-2-yl]spiro[6,7-dihydro-5H-benzothiophene-4,3′-azetidine]-3-carbonitrile] | 10 to 100 | < 0.01 | < 0.01 |
| C[C@@]1(O)CCCN(c2nc(OC[C@@]34CCCN3C[C@H](F)C4)nc(N3CC4(CCc5sc(N)c(C#N)c54)C3)n2)C1 [Compound 10, 2-amino-1′-[4-[[(2R,8S)-2-fluoro-1,2,3,5,6,7-hexahydropyrrolizin-8-yl]methoxy]-6-[(3R)-3-hydroxy-3-methyl-1-piperidyl]-1,3,5-triazin-2-yl]spiro[5,6-dihydrocyclopenta[b]thiophene-4,3′-azetidine]-3-carbonitrile] | 10 to 100 | < 0.01 | < 0.01 |
| N#Cc1c(N)sc2c1C1(CC2)CN(c2nc(OCC3(CN4CCOCC4)CC3)nc(N3C[C@H]4CC[C@@H](C3)N4)n2)C1 [Compound 2, 2-amino-1′-[4-[[1-(morpholinomethyl)cyclopropyl]methoxy]-6-[(1R,5S)-3,8-diazabicyclo[3.2.1]octan-3-yl]-1,3,5-triazin-2-yl]spiro[5,6-dihydrocyclopenta[b]thiophene-4,3′-azetidine]-3-carbonitrile] | 10 to 100 | < 0.01 | < 0.01 |
| N#Cc1c(N)sc2c1C1(CC2)CN(c2nc(OCC34CCCN3CC(F)C4)nc(N3CC4CCC(C3)N4)n2)C1 [Compound 1, 2-amino-1′-[4-(3,8-diazabicyclo[3.2.1]octan-3-yl)-6-[[(2R,8S)-2-fluoro-1,2,3,5,6,7-hexahydropyrrolizin-8-yl]methoxy]-1,3,5-triazin-2-yl]spiro[5,6-dihydrocyclopenta[b]thiophene-4,3′-azetidine]-3-carbonitrile] | 10 to 100 | < 0.01 | < 0.01 |
| N#Cc1c(N)sc2c1C1(CC2)CN(c2nc(OC[C@@]34CCCN3C[C@H](F)C4)nc(N3CCCC(C#N)C3)n2)C1 (stereo partly drawn) [Compound 13, 2-amino-1′-[4-(3-cyano-1-piperidyl)-6-[[(2R,8S)-2-fluoro-1,2,3,5,6,7-hexahydropyrrolizin-8-yl]methoxy]-1,3,5-triazin-2-yl]spiro[5,6-dihydrocyclopenta[b]thiophene-4,3′-azetidine]-3-carbonitrile] | 100 to 1000 | 0.01 to 0.1 | 0.01 to 0.1 |
